Test results reported in ChEMBL document CHEMBL5634177, “Isolation and Structure Determination of cis-OPDA-α-Monoglyceride from Arabidopsis thaliana” (J Nat Prod, 2024).
The source made the active and inactive calls. The calls are words filed in the database; no cut-off is given here.

Tests used:
Assay type in all cases: functional, organism-based
Settings in all cases: dose 50.0 µg
Bacillus subtilis = assay: Antibacterial activity against Bacillus subtilis assessed as inhibition of bacterial growth at 50 ug incubated for 24 hrs by paper disc method
Staphylococcus aureus = assay: Antibacterial activity against Staphylococcus aureus assessed as inhibition of bacterial growth at 50 ug incubated for 24 hrs by paper disc method
Escherichia coli = assay: Antibacterial activity against Escherichia coli assessed as inhibition of bacterial growth at 50 ug incubated for 24 hrs by paper disc method

Row | SMILES | Activity (Bacillus subtilis) | Activity (Staphylococcus aureus) | Activity (Escherichia coli)
1 | CC/C=C\C[C@@H]1C(=O)C=C[C@@H]1CCCCCCCC(=O)OCC(O)CO (some centres not stated) | Active | Active | inactive
2 | CC/C=C\C[C@@H]1C(=O)C=C[C@@H]1CCCCCCCC(=O)O | Active | Active | inactive
3 | CC/C=C\C[C@H]1C(=O)CC[C@@H]1CC(=O)O | inactive | inactive | inactive
4 | OCC(O)CO | inactive | inactive | inactive
